Test results from patent US12593865B2, “Member for flavor inhalation article, flavor inhalation article, phenol scavenger for flavor inhalation article, and method for producing flavor inhalation article” (Japan Tobacco Inc., priority 2019, dated 2026).

Assays:
[1] = Distance between Hansen solubility parameter of the substance and that of phenol, HSP (phenol); assay type: physicochemical; conditions: distance to Hansen solubility parameter of phenol, 25° C.
Description: The Hansen solubility parameter is obtained by decomposing solubility parameter δt (SP) introduced by a person into dispersion force contribution term δd between molecules, dipole interaction contribution term δp between molecules, and hydrogen bond contribution term δh between molecules, thereby extending an applicable substance to a polar substance and a substance generating hydrogen bonding. […] The relationship between the solubility parameter δt and the three contribution terms is shown in the following formula: […]
The three parameters of the dispersion force contribution term δd, the dipole interaction contribution term δp, and the hydrogen bond contribution term δh can be regarded as coordinates in a three-dimensional space with the respective parameters as axes. Since various substances have specific HSPs at a specified temperature, HSPs of these substances are represented as points at different positions in the three-dimensional space as shown in FIG. 1. The solubility (compatibility) between given substance i and another substance j is considered to be higher as distance Rij between two points represented by the following formula becomes smaller.
Accordingly, a magnitude of influence of given substance X on phenol selective filtering performance can be evaluated by obtaining a distance between a position of HSP of phenol and a position of HSP of the given substance X in the three-dimensional space. In the present specification and claims, the distance Rij obtained from the Hansen solubility parameter of phenol and the Hansen solubility parameter of the given substance X according to the above formula is defined as HSP (phenol).

[2] = Dropping point DP of the substance (JIS K2220:2013); assay type: physicochemical
Description: A substance having a dropping point (DP) of 50° C. or higher is less likely to be fluidized under relatively high temperature storage conditions, e.g., in a vending machine having a high temperature. […] Furthermore, when the phenol scavenger contains a substance that is less likely to leak out from a filter or the like, the substance is likely to remain in the filter or the like, and therefore, a member having excellent phenol selective filtering performance can be realized. […] The dropping point of the substance is preferably in a range from 50° C. to 130° C. When the dropping point of the substance is excessively high, the phenol scavenger containing the substance may not be easily carried by a filter or the like, which is not preferable. The dropping point of the substance can be measured according to JIS K2220:2013.
In general, a “dropping point” is a physical property specified for a substance that is semisolid at room temperature such as grease, but a “dropping point” herein is a physical property specified not only for a substance that is semisolid at room temperature but also for a substance that is solid at room temperature. A dropping point of a substance that is solid at room temperature is, for example, equal to its melting point.

[3] = Octanol/water partition coefficient Log P at 25° C.; conditions: for logP: n-octanol/water

CC(=O)OCC(COC(C)=O)OC(C)=O [Triacetin, triacetin, reference compound]
HSP (phenol) [1]: 7.18
Vapor Pressure (Pa) at 25° C.: 0 Pa
dropping point DP [2]: 4 °C
Partition Coefficient Log P at 25° C. ([3]; octanol/water, 25° C.): 0.25

Cc1occc(=O)c1O [Maltol, maltol]
HSP (phenol) [1]: 6.89
dropping point DP [2]: 78 °C
logP [3]: -0.26

O=C(O)c1ccccc1 [Benzoic acid, benzoic acid]
HSP (phenol) [1]: 5.17
dropping point DP [2]: 122 °C

COc1cc(CCC(C)=O)ccc1O [Zingerone, zingerone]
HSP (phenol) [1]: 5.56
Vapor Pressure (Pa) at 25° C.: 0 Pa
dropping point DP [2]: 54 °C
logP [3]: 1.54

CC1=C(O)C(=O)CC1 [Cyclotene, cyclotene]
HSP (phenol) [1]: 5.37
dropping point DP [2]: 71 °C
logP [3]: 0.22

CC(O)CCO (centres unmarked) [1,3-butanediol]
logP (physchem): -0.74
Vapor Pressure (Pa) at 25° C.: 8 Pa

CCOC(=O)CCC(=O)OCC [Diethyl succinate, diethyl succinate, reference compound]
logP [3]: 1.26

CC(O)CO (centres unmarked) [Propylene glycol, propylene glycol, reference compound]
HSP (phenol) [1]: 8
